US4061542A, “2-Methyl-L-arginine produced by cultivating streptomyces strain” (Hoffmann-La Roche Inc., priority 1976, dated 1977)
Where two headings read alike, the source gives them in different places.

Key:
[1] = tested on: ornithine decarboxylase; assay: Inhibition of ornithine decarboxylase; assay type: biochemical; settings: in words; no test data given
[2] = tested on: males; assay: Anti-fertility activity when administered to males; assay type: in vivo; settings: in words, no test data given
[3] = tested on: spermidine production; assay: Suppression of spermidine production; settings: in words; no test data given
[4] = Acute toxicity (LD50) in mice; assay type: in vivo; settings: mouse, in vivo, mice
[5] = tested on: males; settings: administered to males; comparison substance; cited from earlier work
[6] = tested on: spermidine production; settings: in words; comparison substance; cited from earlier work
[7] = tested on: ornithine decarboxylase; settings: in words; comparison substance; cited from earlier work
[8] = tested on: Bacillus sp. (ATCC 27860); assay: Antibiotic activity against Bacillus sp. (ATCC 27860); assay type: cell-based
Source text: (§1) The anti-microbial properties of the compound of the formula I and its salts are shown by the paper-disc agar-diffusion assay as described by Scannell et al. J. Antibiotics 25: 179-184 (1972). In this assay, Escherichia coli B as test organism, the minimal agar medium described by Scanell et al. was employed for the initial detection and during isolation of the antimetabolite. Similar to N^5 -hydroxy-L-arginine, the diameter of the inhibition zone was proportional to the logarithm of concentration of the compound of formula I within the range of 2 to about 100 λg/ml. A two-fold increase of the concentration of the compound of formula I increased the inhibition zone diameter by 3 mm and a […] solution gave a zone of about 36 mm.
(§2) (ATCC 27860) as againt E. coli.

[9] = tested on: mice; assay: Acute toxicity (LD50) in mice; assay type: in vivo; settings: in words
[10] = tested on: Escherichia coli B; assay: Paper-disc agar-diffusion assay (Scannell et al.), Escherichia coli B as test organism, minimal agar medium; assay type: cell-based
Source text: as §1, §2

C[C@](N)(CCCN)C(=O)O [L-2-methyl ornithine, 2-methyl-L-ornithine]
inhibition of ornithine decarboxylase [1]: inhibitor of ornithine decarboxylase | anti-fertility activity [2]: anti-fertility agent | suppression of spermidine production [3]: suppresses spermidine production

C[C@](N)(CCCNC(=N)N)C(=O)O
LD50 ([4]; ip): > 1000 mg/kg | LD50 ([4]; po): > 1000 mg/kg

CC(N)(CCCN)C(=O)O (racemic) [D,L-2-methyl ornithine]
anti-fertility activity [5]: anti-fertility agent | suppression of spermidine production [6]: suppresses spermidine production | inhibition of ornithine decarboxylase [7]: inhibitor of ornithine decarboxylase

C[C@](N)(CCCNC(=N)N)C(=O)O [compound of formula I, 2-methyl-L-arginine]
activity against Bacillus s.p. ([8]; in words): active | level of activity against Bacillus sp. (ATCC 27860) compared with E. coli ([8]; relative to E. coli): approximately the same level of activity | toxicity to vertebrates [9]: relatively non-toxic | reversal of antibiotic activity against Escherichia coli ([10]; by added amino acids): reversed by L-arginine, L-citrulline, L-ornithine and N^2 -acetyl-L-ornithine | activity against Escherichia coli B ([10]; in words): active | increase of inhibition zone diameter on two-fold increase of concentration ([10]; two-fold increase of the concentration, Escherichia coli B): 3 mm
